Assay results taken from article PMC5608804, “Stepwise Evolution Improves Identification of Diverse Peptides Binding to a Protein Target” (Scientific Reports, 2017).

Molecular target: T1, streptavidin (Streptomyces avidinii, UniProt P22629)
T1 construct: purchased GE Healthcare (Little Chalfont, UK)
Experiment: Cy5-streptavidin binding on HotSpot discovery array, 5-mer L-peptide library
Conditions: for S/B: signal to background ratio
Source text: To identify hotspot sequences that bind to streptavidin (SA), we bound Cy5-SA to an array library of 2,476,099 5-mer L-peptides synthesized with 19 of 20 natural amino acids (excluding cysteine). The fluorescence signal intensity was aggregated across three independently synthesized arrays; then the 2,047 peptides with a signal-to-background ratio (S/B) >4 were selected. The data was further filtered to select 1,100 peptides for which signal intensities were highly correlated on all 3 arrays (the percentage of mean deviation to mean was <10%, see Supplementary dataset Table 2A). Most selected sequences (1,019 of 1,100) contained HP, PQ, or PM sequences: their presence would be expected in the well-known HPQ and HPM streptavidin binders[13]–[18].
The comprehensive peptide library included 2,476,099 5-mer peptides synthesized in a single copy with 19 of 20 L- or D-amino acids (excluding cysteine). Libraries were flanked on both N- and C-termini by linkers of 1 or 3 amino acids using a 3:1 glycine-serine mixture.
Cy5™-streptavidin (Cy5-SA) was purchased from GE Healthcare (Little Chalfont, UK). Freshly deprotected arrays were used in each experiment. Streptavidin binding to all arrays was performed with 0.5 µg/ml Cy5-SA either in binding buffer containing 10 mM Tris-HCl (pH 7.4), 1% alkali-soluble casein (EMD Millipore), 0.05% Tween-20 or in 10 mM Tris-HCl (pH 7.4), 4% BSA (Roche, Basel, Switzerland), 0.05% Tween-20 in a 30 mL PAP Jar container (Evergreen Scientific, Vernon, CA) overnight at 4° C. After incubation, arrays were washed in 20 mM Tris-HCl (pH 7.8), 0.2 M NaCl, 1% SDS or 1X TBS (pH 7.4) for 30 sec followed by a 1 min wash in water, and then dried by spinning in a microcentrifuge equipped with an array holder.
Cy5 fluorescence intensity of the arrays was measured with an MS200 scanner (Roche NimbleGen, Madison, WI) at resolution 2 µm, wavelength 635 nm, gain 25%, and laser intensity 100%. Cy5 signal intensities were extracted using Image Extraction Software (Roche NimbleGen). Data pre-processing, normalization, and statistical tests were performed using the language R. Data visualization and analysis was performed with the Spotfire 6.5.0 (Tibco, Boston, MA) software platform. Distance analysis and principle component analysis of distance matrices were performed with the R package PEPLIB[19].

[1] = average of three arrays, L-peptide 5-mer library
[2] = 5-mer L-peptide library array, Cy5-streptavidin
[3] = 5-mer L-peptide library array, Cy5-streptavidin, from the average of three arrays
[4] = 5-mer L-peptide library array, Cy5-streptavidin, from average of three arrays
[5] = 5-mer L-peptide library, from the average of three arrays

T1 sequence (P22629 25-183): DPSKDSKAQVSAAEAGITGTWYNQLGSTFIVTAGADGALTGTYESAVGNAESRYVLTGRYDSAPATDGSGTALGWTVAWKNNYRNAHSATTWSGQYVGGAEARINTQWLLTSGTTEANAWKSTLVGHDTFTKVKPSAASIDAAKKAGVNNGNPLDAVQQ

## PAWGH [L-amino acid 5-mer array peptide]
[1]
  S/B (signal to background ratio): 11.9
[2]
  S/B: 11.9

## YHPQM
[3]
  S/B (signal to background ratio): 77.9

## TGHPQ
[4]
  S/B (signal to background ratio): 128.8

## HPQFT
[3]
  S/B (signal to background ratio): 92.5

## HHHPM
[3]
  S/B (signal to background ratio): 67.1

## HPMGV
[2]
  S/B: 9.2

## NHPQV
[3]
  S/B (signal to background ratio): 81.6

## ALHPM
[4]
  S/B (signal to background ratio): 39.7

## SDHPM
[4]
  S/B (signal to background ratio): 34.7

## WHPQF
[4]
  S/B (signal to background ratio): 132.3

## HPQYN
[3]
  S/B (signal to background ratio): 66.1

## HKHPQ
[3]
  S/B (signal to background ratio): 86.4

## RAHPQ
[4]
  S/B (signal to background ratio): 147.2

## NHPQQ
[4]
  S/B (signal to background ratio): 42.3

## YHHPM
[3]
  S/B (signal to background ratio): 85.0

## PHPMH
[2]
  S/B: 8.8

## EHPQF
[4]
  S/B (signal to background ratio): 53.2

## KSHPQ
[3]
  S/B (signal to background ratio): 80.0

## ASHPQ
[4]
  S/B (signal to background ratio): 130.1

## PVHPQ
[3]
  S/B (signal to background ratio): 99.3

## HPWRS
[5]
  S/B (signal to background ratio): 4.0

## HPQVN
[3]
  S/B (signal to background ratio): 63.9

## HSHPQ
[4]
  S/B (signal to background ratio): 136.9

## FIHPM
[3]
  S/B (signal to background ratio): 68.2

## HPWRN
[5]
  S/B (signal to background ratio): 4.7

## HPQNT
[3]
  S/B (signal to background ratio): 67.6

## THPMG
[4]
  S/B (signal to background ratio): 43.8

## HPQAM
[2]
  S/B: 18.6

## IHPQT
[2]
  S/B: 13.6

## YHPMM
[4]
  S/B (signal to background ratio): 31.1

## PHPMW
[5]
  S/B (signal to background ratio): 5.2

## NWEAI [L-amino acid 5-mer array peptide]
[5]
  S/B (signal to background ratio): 4.1
[1]
  S/B (signal to background ratio): 4.1

## HPQFQ
[3]
  S/B (signal to background ratio): 90.6

## HPMYS
[2]
  S/B: 8.6

## PGWAH [L-amino acid 5-mer array peptide]
[5]
  S/B (signal to background ratio): 4.8
[1]
  S/B (signal to background ratio): 4.8

## MPQHF
[5]
  S/B (signal to background ratio): 4.4

## HGFPF
[5]
  S/B (signal to background ratio): 4.7
[1]
  S/B (signal to background ratio): 4.7

## DTHPQ
[3]
  S/B (signal to background ratio): 68.3

## KHPMY
[2]
  S/B: 6.0

## MHPQQ
[4]
  S/B (signal to background ratio): 29.0

## WQHPM
[4]
  S/B (signal to background ratio): 142.1

## GWHPM
[3]
  S/B (signal to background ratio): 97.0

## KHPQW
[2]
  S/B: 9.2

## HPMFG
[4]
  S/B (signal to background ratio): 21.9

## WHPQK
[4]
  S/B (signal to background ratio): 42.1

## MHPMW
[5]
  S/B (signal to background ratio): 4.3

## YHPMI
[5]
  S/B (signal to background ratio): 4.8

## HPQHS
[2]
  S/B: 18.1

## THPMR
[2]
  S/B: 8.7

## VHPQQ
[4]
  S/B (signal to background ratio): 30.0

## DGHPQ
[3]
  S/B (signal to background ratio): 62.6

## SVHPQ
[3]
  S/B (signal to background ratio): 116.5

## TRHPQ
[4]
  S/B (signal to background ratio): 156.2

## HPQFP
[4]
  S/B (signal to background ratio): 141.5

## PMPDE
[2]
  S/B: 6.3

## PGHPQ
[4]
  S/B (signal to background ratio): 168.5

## FAHPM
[3]
  S/B (signal to background ratio): 90.2

## WMHPM
[3]
  S/B (signal to background ratio): 117.2

## HPQMY
[2]
  S/B: 11.1

## HPQYK
[2]
  S/B: 6.3

## QHPQN
[4]
  S/B (signal to background ratio): 143.0

## WNHPQ
[4]
  S/B (signal to background ratio): 215.8

## RGHPM
[3]
  S/B (signal to background ratio): 58.1

## AFHPQ
[4]
  S/B (signal to background ratio): 177.5

## QSHPM
[4]
  S/B (signal to background ratio): 42.7

## VIHPQ
[3]
  S/B (signal to background ratio): 83.6

## SEHPM
[4]
  S/B (signal to background ratio): 19.1

## HPQPP
[2]
  S/B: 6.0

## RQHPM
[4]
  S/B (signal to background ratio): 55.1

## HPMAM
[2]
  S/B: 6.5

## WIHPQ
[4]
  S/B (signal to background ratio): 166.2

## HGHPQ
[4]
  S/B (signal to background ratio): 129.3

## FLHPM
[3]
  S/B (signal to background ratio): 84.7

## GHPMV
[4]
  S/B (signal to background ratio): 21.8

## TPHPQ
[4]
  S/B (signal to background ratio): 142.6

## AHPQK
[2]
  S/B: 12.1

## WDAWE [L-amino acid 5-mer array peptide]
[5]
  S/B (signal to background ratio): 4.0
[1]
  S/B (signal to background ratio): 4.0

## PVHPM
[4]
  S/B (signal to background ratio): 27.2

## AHPQD
[2]
  S/B: 10.2

## NHPQW
[2]
  S/B: 16.4

## HPQPW
[5]
  S/B (signal to background ratio): 4.6
